Laboratory results reported in patent US10112899B2 (ViiV HEALTHCARE UK LIMITED, priority 2014, dated 2018).

Tested on: HIV in the HTLV-1 transformed cell line MT-4
Assay: organism not typed
Assay type: cell-based
Details: MT4, 96 h, MT-4 cells; luciferase/cell titer glo readout after 96 hours; 10 point dose response

Row | Structure (SMILES) | IC50 [nM]
1 | Cc1ccc(F)cc1C(=O)N1Cc2c(C)c(-c3cc(F)c4c(c3C)CCCO4)c([C@H](OC(C)(C)C)C(=O)O)c(C)c2C1 (atropisomer, axis not shown; (M)) [Example 177, (S)-2-(tert-butoxy)-2-((M)-2-(5-fluoro-2-methylbenzoyl)-6-(8-fluoro-5-methylchroman-6-yl)-4,7-dimethylisoindolin-5-yl)acetic acid] | 2
2 | Cc1cc(F)cc(C(=O)N2Cc3c(C)c(-c4cc(F)c5c(c4C)CCCO5)c([C@H](OC(C)(C)C)C(=O)O)c(C)c3C2)c1 (atropisomer, axis not shown; (M)) [Example 178, (S)-2-(tert-butoxy)-2-((M)-2-(3-fluoro-5-methylbenzoyl)-6-(8-fluoro-5-methylchroman-6-yl)-4,7-dimethylisoindolin-5-yl)acetic acid] | 2
3 | COc1ccc(F)c(C(=O)N2Cc3c(C)c(-c4cc(F)c5c(c4C)CCCO5)c([C@H](OC(C)(C)C)C(=O)O)c(C)c3C2)c1 (atropisomer, axis not shown; (M)) [Example 179, (S)-2-(tert-butoxy)-2-((M)-2-(2-fluoro-5-methoxybenzoyl)-6-(8-fluoro-5-methylchroman-6-yl)-4,7-dimethylisoindolin-5-yl)acetic acid] | 4
4 | COc1cc(C(=O)N2Cc3c(C)c(-c4cc(F)c5c(c4C)CCCO5)c([C@H](OC(C)(C)C)C(=O)O)c(C)c3C2)ccc1F (atropisomer, axis not shown; (M)) [Example 180, (S)-2-(tert-butoxy)-2-((M)-2-(4-fluoro-3-methoxybenzoyl)-6-(8-fluoro-5-methylchroman-6-yl)-4,7-dimethylisoindolin-5-yl)acetic acid] | 4
5 | Cc1c(-c2c(C)c3c(c(C)c2[C@H](OC(C)(C)C)C(=O)O)CN(C(=O)c2cc(F)cc(Cl)c2)C3)cc(F)c2c1CCCO2 (atropisomer, axis not shown; (M)) [Example 181, (S)-2-(tert-butoxy)-2-((M)-2-(3-chloro-5-fluorobenzoyl)-6-(8-fluoro-5-methylchroman-6-yl)-4,7-dimethylisoindolin-5-yl)acetic acid] | 5
6 | Cc1cncc(C(=O)N2Cc3c(C)c(-c4cc(F)c5c(c4C)CCCO5)c([C@H](OC(C)(C)C)C(=O)O)c(C)c3C2)c1 (atropisomer, axis not shown; (M)) [Example 182, (S)-2-(tert-butoxy)-2-((M)-6-(8-fluoro-5-methylchroman-6-yl)-4,7-dimethyl-2-(5-methylnicotinoyl)isoindolin-5-yl)acetic acid] | 5
7 | COc1ccc(C)cc1C(=O)N1Cc2c(C)c(-c3cc(F)c4c(c3C)CCCO4)c([C@H](OC(C)(C)C)C(=O)O)c(C)c2C1 (atropisomer, axis not shown; (M)) [Example 183, (S)-2-(tert-butoxy)-2-((M)-6-(8-fluoro-5-methylchroman-6-yl)-2-(2-methoxy-5-methylbenzoyl)-4,7-dimethylisoindolin-5-yl)acetic acid] | 4
8 | Cc1c(-c2c(C)c3c(c(C)c2[C@H](OC(C)(C)C)C(=O)O)CN(C(=O)c2ccccn2)C3)cc(F)c2c1CCCO2 (atropisomer, axis not shown; (M)) [Example 184, (S)-2-(tert-butoxy)-2-((M)-6-(8-fluoro-5-methylchroman-6-yl)-4,7-dimethyl-2-picolinoylisoindolin-5-yl)acetic acid] | 2
9 | Cc1ccc(Cl)cc1C(=O)N1Cc2c(C)c(-c3cc(F)c4c(c3C)CCCO4)c([C@H](OC(C)(C)C)C(=O)O)c(C)c2C1 (atropisomer, axis not shown; (M)) [Example 185, (S)-2-(tert-butoxy)-2-((M)-2-(5-chloro-2-methylbenzoyl)-6-(8-fluoro-5-methylchroman-6-yl)-4,7-dimethylisoindolin-5-yl)acetic acid] | 4
10 | Cc1c(-c2c(C)c3c(c(C)c2[C@H](OC(C)(C)C)C(=O)O)CN(C(=O)c2ccc(F)c(F)c2)C3)cc(F)c2c1CCCO2 (atropisomer, axis not shown; (M)) [Example 186, (S)-2-(tert-butoxy)-2-((M)-2-(3,4-difluorobenzoyl)-6-(8-fluoro-5-methylchroman-6-yl)-4,7-dimethylisoindolin-5-yl)acetic acid] | 2
11 | COc1ccc(C(=O)N2Cc3c(C)c(-c4cc(F)c5c(c4C)CCCO5)c([C@H](OC(C)(C)C)C(=O)O)c(C)c3C2)cc1F (atropisomer, axis not shown; (M)) [Example 187, (S)-2-(tert-butoxy)-2-((M)-2-(3-fluoro-4-methoxybenzoyl)-6-(8-fluoro-5-methylchroman-6-yl)-4,7-dimethylisoindolin-5-yl)acetic acid] | 3
12 | Cc1c(-c2c(C)c3c(c(C)c2[C@H](OC(C)(C)C)C(=O)O)CN(C(=O)c2cc(Cl)c(F)c(Cl)c2)C3)cc(F)c2c1CCCO2 (atropisomer, axis not shown; (M)) [Example 188, (S)-2-(tert-butoxy)-2-((M)-2-(3,5-dichloro-4-fluorobenzoyl)-6-(8-fluoro-5-methylchroman-6-yl)-4,7-dimethylisoindolin-5-yl)acetic acid] | 4
13 | Cc1ccc(C(=O)N2Cc3c(C)c(-c4cc(F)c5c(c4C)CCCO5)c([C@H](OC(C)(C)C)C(=O)O)c(C)c3C2)c(C)c1 (atropisomer, axis not shown; (M)) [Example 189, (S)-2-(tert-butoxy)-2-((M)-2-(2,4-dimethylbenzoyl)-6-(8-fluoro-5-methylchroman-6-yl)-4,7-dimethylisoindolin-5-yl)acetic acid] | 4
14 | Cc1ccc(C(=O)N2Cc3c(C)c(-c4cc(F)c5c(c4C)CCCO5)c([C@H](OC(C)(C)C)C(=O)O)c(C)c3C2)cc1 (atropisomer, axis not shown; (M)) [Example 190, (S)-2-(tert-butoxy)-2-((M)-6-(8-fluoro-5-methylchroman-6-yl)-4,7-dimethyl-2-(4-methylbenzoyl)isoindolin-5-yl)acetic acid] | 5
15 | Cc1cc(C)cc(C(=O)N2Cc3c(C)c(-c4cc(F)c5c(c4C)CCCO5)c([C@H](OC(C)(C)C)C(=O)O)c(C)c3C2)c1 (atropisomer, axis not shown; (M)) [Example 191, (S)-2-(tert-butoxy)-2-((M)-2-(3,5-dimethylbenzoyl)-6-(8-fluoro-5-methylchroman-6-yl)-4,7-dimethylisoindolin-5-yl)acetic acid] | 2
16 | COc1ccc(C(=O)N2Cc3c(C)c(-c4cc(F)c5c(c4C)CCCO5)c([C@H](OC(C)(C)C)C(=O)O)c(C)c3C2)cc1C (atropisomer, axis not shown; (M)) [Example 192, (S)-2-(tert-butoxy)-2-((M)-6-(8-fluoro-5-methylchroman-6-yl)-2-(4-methoxy-3-methylbenzoyl)-4,7-dimethylisoindolin-5-yl)acetic acid] | 5
17 | Cc1cccc(C(=O)N2Cc3c(C)c(-c4cc(F)c5c(c4C)CCCO5)c([C@H](OC(C)(C)C)C(=O)O)c(C)c3C2)c1C (atropisomer, axis not shown; (M)) [Example 193, (S)-2-(tert-butoxy)-2-((M)-2-(2,3-dimethylbenzoyl)-6-(8-fluoro-5-methylchroman-6-yl)-4,7-dimethylisoindolin-5-yl)acetic acid] | 5
18 | Cc1c(-c2c(C)c3c(c(C)c2[C@H](OC(C)(C)C)C(=O)O)CN(C(=O)c2cc(F)c(F)c(Cl)c2)C3)cc(F)c2c1CCCO2 (atropisomer, axis not shown; (M)) [Example 194, (S)-2-(tert-butoxy)-2-((M)-2-(3-chloro-4,5-difluorobenzoyl)-6-(8-fluoro-5-methylchroman-6-yl)-4,7-dimethylisoindolin-5-yl)acetic acid] | 11
19 | COc1c(F)cccc1C(=O)N1Cc2c(C)c(-c3cc(F)c4c(c3C)CCCO4)c([C@H](OC(C)(C)C)C(=O)O)c(C)c2C1 (atropisomer, axis not shown; (M)) [Example 195, (S)-2-(tert-butoxy)-2-((M)-2-(3-fluoro-2-methoxybenzoyl)-6-(8-fluoro-5-methylchroman-6-yl)-4,7-dimethylisoindolin-5-yl)acetic acid] | 3
20 | COc1ccc(C(=O)N2Cc3c(C)c(-c4cc(F)c5c(c4C)CCCO5)c([C@H](OC(C)(C)C)C(=O)O)c(C)c3C2)cc1 (atropisomer, axis not shown; (M)) [Example 196, (S)-2-(tert-butoxy)-2-((M)-6-(8-fluoro-5-methylchroman-6-yl)-2-(4-methoxybenzoyl)-4,7-dimethylisoindolin-5-yl)acetic acid] | 2
21 | Cc1cccc(F)c1C(=O)N1Cc2c(C)c(-c3cc(F)c4c(c3C)CCCO4)c([C@H](OC(C)(C)C)C(=O)O)c(C)c2C1 (atropisomer, axis not shown; (M)) [Example 197, (S)-2-(tert-butoxy)-2-((M)-6-(8-fluoro-5-methylchroman-6-yl)-2-(2-fluoro-6-methylbenzoyl)-4,7-dimethylisoindolin-5-yl)acetic acid] | 4
22 | Cc1c(-c2c(C)c3c(c(C)c2[C@H](OC(C)(C)C)C(=O)O)CN(C(=O)c2ccc(Cl)cc2)C3)cc(F)c2c1CCCO2 (atropisomer, axis not shown; (M)) [Example 198, (S)-2-(tert-butoxy)-2-((M)-2-(4-chlorobenzoyl)-6-(8-fluoro-5-methylchroman-6-yl)-4,7-dimethylisoindolin-5-yl)acetic acid] | 5
23 | COc1ccccc1C(=O)N1Cc2c(C)c(-c3cc(F)c4c(c3C)CCCO4)c([C@H](OC(C)(C)C)C(=O)O)c(C)c2C1 (atropisomer, axis not shown; (M)) [Example 199, (S)-2-(tert-butoxy)-2-((M)-6-(8-fluoro-5-methylchroman-6-yl)-2-(2-methoxybenzoyl)-4,7-dimethylisoindolin-5-yl)acetic acid] | 4
24 | COc1cc(C)ccc1C(=O)N1Cc2c(C)c(-c3cc(F)c4c(c3C)CCCO4)c([C@H](OC(C)(C)C)C(=O)O)c(C)c2C1 (atropisomer, axis not shown; (M)) [Example 200, (S)-2-(tert-butoxy)-2-((M)-6-(8-fluoro-5-methylchroman-6-yl)-2-(2-methoxy-4-methylbenzoyl)-4,7-dimethylisoindolin-5-yl)acetic acid] | 11
